Experimental data published in patent US10253319B2, “miRNA modulators of thermogenesis” (AptamiR Therapeutics, Inc., priority 2012, dated 2019).

System: UCP3
Assay: UCP3 mRNA expression change in pre-adipocytes, RNA-Seq (Table 14)
Format: cell-based, human
Conditions: 12 days, 100 nM rosiglitazone or 25 nM miRNA analog
Protocol: In order to assess the effect of miRNA analogs on human pre-adipocytes differentiation into mature adipocytes, human subcutaneous pre-adipocytes (SuperLot 0048 from 8 female donors, ZenBio, NC) were plated on Day 0 into 96-well plates and allowed to attach overnight in preadipocyte medium (DMEM/Ham's F-12 (1:1, v/v), HEPES buffer, Fetal bovine serum and Antibiotics). The next day (Day 1), the medium was removed and replaced with differentiation medium (DMEM/Ham's F-12 (1:1, v/v), 100 μM Ascorbic Acid, 0.85 μM insulin, 20 nM sodium selenite, 0.2 nM, triiodothryonine, 1 μM dexamethasone, 100 μM isobutyl-methylxanthine, 100 nM Rosiglitazone and Antibiotics. The cells were allowed to incubate for 2 days at 37°, 5% CO2. After 2 days (Day 3), the medium was removed and replaced with fresh maintenance medium (DMEM/Ham's F-12 (1:1, v/v), 100 μM Ascorbic Acid, 0.85 μM insulin, 20 nM sodium selenite, 0.2 nM triiodothryonine, and Antibiotics). On Day 3, the cells were transfected with miRNA analogs (Dharmacon specific miRIDIAN Mimics and Hairpin Inhibitors) using the transfecting agent Dharmafect1. All treatments were in triplicate. […]
Changes in mRNA expression of UCP1, 2 and 3 were also measured in the presence of rosiglitazone or miRNA analogs, as shown below in Table 14.

Compound: CN(CCOc1ccc(CC2SC(=O)NC2=O)cc1)c1ccccn1 (stereo not shown) [rosiglitazone]
- mRNA Expression changes (log ratios) UCP3: 0.26 log ratios
